Assay results: PMC7577125 (Antimicrobial Agents and Chemotherapy, 2020)
Like-named read-outs stand apart in the source and are kept apart here.

What was measured:
HBV [1] = assay: Extracellular HBV DNA and pgRNA in HepAD38 cells (qPCR, RT-qPCR); type: cell-based, Hepatitis B virus; settings: for Extracellular DNA content (% of DMSO control) / Extracellular pgRNA content (% of DMSO control): HepAD38, concn ETV 0.01, ABI-H0731 2.0, GLS4 0.5, NVR 3-778 2.5, AT-130 0.8, VRD-32 0.8 μM
Excerpt: For HBV RNA Northern blot analysis, total cellular RNA or encapsidated pgRNA samples were resolved in a 1.5% agarose gel containing 2.2 M formaldehyde and transferred onto a Hybond-XL membrane (GE Healthcare). For DNA Southern blot analysis, HBV core DNA or cccDNA samples were resolved by electrophoresis in a 1.2% agarose gel and blotted onto a Hybond-XL membrane. Membranes were probed with either an [α-^32P]UTP (3,000 Ci/mmol; PerkinElmer)-labeled plus-strand-specific (for Northern blot hybridization) or minus-strand-specific (for Southern blot hybridization) HBV riboprobe and exposed to a phosphorimager screen. Extracellular HBV DNA and RNA were copurified from the culture medium of induced HepAD38 cells by using a MinElute virus vacuum kit (Qiagen). Viral DNA was quantified using the above-mentioned qPCR method directly, and HBV RNA was detected by RT-qPCR with the same core region primer/probe set after the removal of DNA contamination by DNase I (Thermo Fisher) treatment.

HBV cccDNA [2] = assay: cccDNA formation assay in infected HepG2-NTCP cells (Southern blot); type: cell-based; settings: Hepatitis B virus, 96 h, 1.00 μM, 4 days, read-out: cccDNA % of Control
HBV Cp T109I = assay: microbe, parasite or virus in culture; type: cell-based, Hepatitis B virus; settings: Hepatitis B virus, Huh-7, read-out: Mean EC50
HBV [3] = assay: HBV infection of primary human hepatocytes (PHHs); type: cell-based; settings: Hepatitis B virus, Hepatocyte, PHH
HBV Cp I105L = assay: microbe, parasite or virus in culture; type: cell-based, Hepatitis B virus; settings: Hepatitis B virus, Huh-7, read-out: Mean EC50
HBV genotype C = assay: microbe, parasite or virus in culture; type: cell-based; settings: Hepatitis B virus, read-out: Mean antiviral EC50
HBV genotype D = assay: microbe, parasite or virus in culture; type: cell-based; settings: Hepatitis B virus, read-out: Mean antiviral EC50
HBV [4] = assay: HBV infection of HepG2-NTCP cells; type: cell-based; settings: Hepatitis B virus
[5] = tested on: HBV (genotype D, subtype ayw); assay: HBV replication assay in HepAD38 cells; type: cell-based, Hepatitis B virus
HBV capsid DNA [6] = assay: Incoming capsid assay in HepG2-NTCP cells; type: cell-based; settings: Hepatitis B virus, 1.00 μM, 3 h, read-out: Capsid DNA % of Control
[7] = tested on: NrtI^R HBV (rtL180M/M204V); assay: microbe, parasite or virus in culture; type: cell-based, Hepatitis B virus; settings: Hepatitis B virus
HBV Cp Wild type = assay: microbe, parasite or virus in culture; type: cell-based, Hepatitis B virus; settings: Hepatitis B virus, Huh-7, read-out: Mean EC50
HBV genotype A = assay: microbe, parasite or virus in culture; type: cell-based; settings: Hepatitis B virus, read-out: Mean antiviral EC50
HBV [8] = assay: De novo infection models (HepG2-NTCP and PHH), summary; type: cell-based, Hepatitis B virus; settings: HepG2-NTCP and PHH cells, tested at up to 100 nM
[9] = tested on: HBV genotypes A, B, C, and D; assay: microbe, parasite or virus in culture; type: cell-based; settings: Hepatitis B virus, read-out: VR EC50s
HBV Cp P25A = assay: microbe, parasite or virus in culture; type: cell-based, Hepatitis B virus; settings: Hepatitis B virus, Huh-7, read-out: Mean EC50
HBV cccDNA [10] = assay: cccDNA formation assay in infected PHH cells (Southern blot); type: cell-based; settings: Hepatitis B virus, 96 h, 0.10 μM, 4 days, read-out: cccDNA % of Control
HBV Cp I105T = assay: microbe, parasite or virus in culture; type: cell-based, Hepatitis B virus; settings: Hepatitis B virus, Huh-7, read-out: Mean EC50
HBV capsid DNA [11] = assay: Incoming capsid assay in PHH cells; type: cell-based; settings: Hepatitis B virus, 0.10 μM, 3 h, read-out: Capsid DNA % of Control
HBV Cp Y38C = assay: microbe, parasite or virus in culture; type: cell-based, Hepatitis B virus; settings: Hepatitis B virus, Huh-7, read-out: Mean EC50
HBV genotype B = assay: microbe, parasite or virus in culture; type: cell-based; settings: Hepatitis B virus, read-out: Mean antiviral EC50
HBV Cp D29G = assay: microbe, parasite or virus in culture; type: cell-based, Hepatitis B virus; settings: Hepatitis B virus, Huh-7, read-out: Mean EC50
HBV Cp T33N = assay: microbe, parasite or virus in culture; type: cell-based, Hepatitis B virus; settings: Hepatitis B virus, Huh-7, read-out: Mean EC50
HBV [12] = assay: Dose response of ETV and ABI-H0731 alone and in combination in induced HepAD38 cells; type: cell-based, Hepatitis B virus; settings: 100× VR EC50 of ETV
Protocol: Viral replication was evaluated by quantifying the levels of total HBV DNA in the cells by qPCR. […] In both cases, the data are plotted as a function of each drug’s concentration relative to its VR EC50.

HBV Cp T109M = assay: microbe, parasite or virus in culture; type: cell-based, Hepatitis B virus; settings: Hepatitis B virus, Huh-7, read-out: Mean EC50
HBV Cp Y118F = assay: microbe, parasite or virus in culture; type: cell-based, Hepatitis B virus; settings: Hepatitis B virus, Huh-7, read-out: Mean EC50
HBV Cp Y38F = assay: microbe, parasite or virus in culture; type: cell-based, Hepatitis B virus; settings: Hepatitis B virus, Huh-7, read-out: Mean EC50
[13] = total intracellular viral DNA, read-out: Mean EC50, viral DNA

COc1ccccc1/C(Br)=C(/NC(=O)c1ccc([N+](=O)[O-])cc1)C(=O)N1CCCCC1 [AT-130] was tested, and the “Extracellular DNA content (% of DMSO control)” value (HBV [1]) was 5.3 % of DMSO control and the “Extracellular pgRNA content (% of DMSO control)” value (HBV [1]) was 8.6 % of DMSO control.

C=C1[C@H](CO)[C@@H](O)C[C@@H]1n1cnc2c(=O)[nH]c(N)nc21 [ETV, entecavir] gave an activity at 1 µM (HBV cccDNA [2]) of 85%, an EC50 (HBV Cp T109I) of 1.9 ± 0.6 nM and an EC50 (HBV [3]; read-out: Mean EC50, HBeAg) of over 100 nM. The EC50 (HBV [3]; read-out: Mean EC50, HBsAg) was over 100 nM, the EC50 (HBV [3]; read-out: Mean EC50, pgRNA) was over 100 nM and the EC50 (HBV [3]; [13]) was under 0.1 nM. It also gave an EC50 (HBV Cp I105L) of 0.4 ± 0.2 nM, an EC50 (HBV genotype C) of 1.2 ± 0.1 nM and an EC50 (HBV genotype D) of 5 ± 1.9 nM. The EC50 (HBV [4]; read-out: Mean EC50, HBeAg) was over 100 nM, the EC50 (HBV [4]; read-out: Mean EC50, HBsAg) was over 100 nM and the EC50 (HBV [4]; read-out: Mean EC50, pgRNA) was over 100 nM. It also gave an EC50 (HBV [4]; [13]) of 0.8 nM, an EC50 ([5]; HepAD38, concomitantly determined with HepG2-NrtI^R, read-out: Mean EC50) of 0.58 ± 0.15 nM and an EC50 ([5]; Hepatitis B virus, HePAD38, HepAD38, concomitantly determined with HepG2-NrtI^R, read-out: Mean EC50) of 0.6 nM. For the same molecule, the EC50 ([5]; Hepatitis B virus, HePAD38, HepAD38, total intracellular viral DNA, read-out: Mean EC50, viral DNA) was 1.2 ± 0.3 nM, the EC50 ([5]; Hepatitis B virus, HePAD38, comparison value of Figure S4 legend, read-out: EC50 against a wild-type strain) was 1 nM and the activity at 1 µM (HBV capsid DNA [6]) was 90%. The EC50 ([7]; 96 h, read-out: Mean EC50) was 7.1 ± 1.2 nM, the EC50 ([7]; 168 h, read-out: EC50 by Southern blot of intracellular viral core DNA) was about 10 nM and the EC50 (HBV Cp Wild type) was 1.9 ± 0.9 nM. The EC50 (HBV genotype A) was 1.9 ± 0.5 nM, the “inhibition of viral antigen production” value (HBV [8]) was “weak and incomplete inhibition” and the EC50 [9] was 1.2 to 5 nM. For the same molecule, the EC50 (HBV Cp P25A) was 2.9 ± 0.3 nM, the activity at 0.1 µM (HBV cccDNA [10]) was 88% and the EC50 (HBV Cp I105T) was 0.5 ± 0.3 nM. For the same molecule, the activity at 0.1 µM (HBV capsid DNA [11]) was 86%, the EC50 (HBV Cp Y38C) was 1.1 ± 0.5 nM and the EC50 (HBV genotype B) was 2.3 ± 0.5 nM. For the same molecule, the EC50 (HBV Cp D29G) was 0.6 ± 0.1 nM, the EC50 (HBV Cp T33N) was 3.5 ± 1.6 nM and the “reduction of HBV DNA levels” value (HBV [12]) was about 1 log. The “HBV DNA levels” value (HBV [12]; control 2.2 × 10^6) was 1.3 × 10^5 copies/μl, the “secreted HBV DNA levels reduced by” value (HBV [1]; HepAD38, ETV 0.01 μM) was 80% and the “Extracellular DNA content (% of DMSO control)” value (HBV [1]) was 19.5 % of DMSO control. For the same molecule, the “Extracellular pgRNA content (% of DMSO control)” value (HBV [1]) was 170 % of DMSO control, the EC50 (HBV Cp T109M) was 1.5 ± 0.3 nM and the EC50 (HBV Cp Y118F) was 1.5 ± 0.9 nM. The EC50 (HBV Cp Y38F) was 4.6 ± 0.6 nM.
